In general, melting point refers to the temperature, or range, at which the solid turns liquid.

Data on 38 compounds can be found in a melting point compilation (Tetko et al.; mined from patent text by program, amines drawn as free bases though some values may be those of a salt).

In turn, `COc1ccc2c(c1)C(=O)N(CCCN(C)CCN1C(=O)c3ccccc3C(C)(C)C1=O)C(=O)C2(C)C` showed a melting point of 158 °C. For the compound `CCn1cc(C)c2cnc(NC(=O)c3ccc(C(C)(C)O)cc3)cc21`, the melting point fell in the range of 198 to 200 °C. The result for `CS(=O)(=O)c1ccc(-c2[nH]c3ccc(Cl)cc3c2-c2cccc(Cl)c2)cc1` reads 254 to 257 °C; that for `CCc1ncnc2ccc(I)cc12`, 110 to 113 °C. The result for `Cc1nn(Cc2ccc(OCc3nc(-c4ccccc4)oc3C)cc2)c(C)c1CCC(=O)O` reads 170 to 171 °C; that for `CSCCNC(=O)N(C)c1cnc(-c2cncc(F)c2)s1`, 117 to 119 °C. The value for `Cc1c(Cl)nnc(Cl)c1Cl` was 67.5 to 70 °C; that for `Oc1cccc(Cc2n[nH]c3ccccc23)c1` was 170 to 172 °C. On to `CCCCc1nc2c(N)nc3cc(/C=C/C(=O)OC)ccc3c2n1CC(C)C`, for which the melting point fell in the range of 193 to 194 °C. The result for `C=C(C)COc1ccc(C)c2c1C(=O)CC2` reads 74.2 to 75.2 °C; that for `CCOc1cc(N)ccn1`, 88 to 89 °C.

In the case of `Brc1cccc(-c2csc(Br)n2)c1`, the melting point was 88 to 90 °C. The result for `CCCCc1ccc(C(=O)Oc2ccc(C#N)c(F)c2)nc1` reads 45.1 to 46.1 °C; that for `COc1cc(COc2nn(-c3ccccc3)cc2CCc2cscn2)ccc1OCc1nc(-c2ccco2)oc1C`, 127 to 128 °C; that for `CCONC(=O)c1ccc(-c2cccc(CN(C)CCCc3ccccc3)c2)cn1`, 50 to 55 °C. The result for `COc1cc(-c2nc3ccc(OCCN(C)C)cc3n2Cc2ccccc2)cc(OC)c1OC` reads 108 °C; that for `O=[N+]([O-])C=C1NCCN1Cc1cc(Br)no1`, 202 °C. For the compound `CCCCc1cc(=O)oc2cc(O)cc(O)c12`, the melting point is 236 to 237 °C. The value for `O=C(Oc1ccccc1)C1=C(O)CCn2c1nc1ccccc12` was 176 to 178 °C; that for `O=C1CCOc2c1ccc1oc(Cl)cc21` was 144 to 146 °C; that for `CC(C(=O)N1CCCC1C(=O)O)N(CC(=O)C(Cc1ccccc1)NC(=O)c1ccccc1)C(=O)OCc1ccccc1` (stereo not drawn) was 70 to 91 °C.

The compound `CC1(C(=O)CC#N)CC1` returned a melting point of 32 to 33 °C. The result for `O=C1NCCN1c1ccc(C2CCN(C(=O)C(F)(F)F)CC2)cc1` reads 198 to 201 °C. The result for `Cc1cc(C)c2nc(CO)n(C)c2n1` reads 178 to 179 °C. The result for `O=C(Cc1ccccc1F)c1ccc(I)cc1` reads 112 to 114 °C. As for `C=CCOc1cccc(C[C@H](NC(=O)OC(C)(C)C)C(=O)OC)c1`, the melting point was 50 to 51 °C. `CC(C)(C)OC(=O)CNc1ccccc1F` registered a melting point of 70 °C. The result for `CN1CCC(Oc2ccc(F)cc2C(N)=O)C1` (stereo not drawn) reads 90 to 93 °C; that for `N#Cc1ccccc1NC1CCN(Cc2ccccc2)CC1`, 104 to 105 °C; that for `CN(C)S(=O)(=O)c1ccc2c(c1)CC(Br)C2=O` (stereo not drawn), 115 °C.

On to `CC(=O)OCc1nc2cc3c(cc2c(=O)n1COC(=O)C(C)(C)C)C(=O)CC3`, for which the melting point amounted to 144 °C. `N#Cc1ncc(NCCO)nc1Br` had a melting point of 158 to 160 °C. As to `CC(C)(O)C#Cc1cccc(Nc2nccc(-c3sc(N)nc3-c3ccccc3)n2)c1`, the melting point lay within 262 to 263 °C.

Compound `N#Cc1cc(-c2nc3cncnc3s2)ccc1Oc1ccc(O)cc1` displayed a melting point of over 250 °C. The value for `O=C1NCCN(c2ccc(OC(F)(F)C(F)F)cc2)C1=O` was 240 to 242 °C; that for `Nc1nc(Cl)cc(OCC2(CO)CCC2)n1` was 125 to 127 °C; that for `COc1ccc(-c2[nH]nc3c2C(=O)c2c(NC(=O)NN(C)C)cccc2-3)cc1` was over 300 °C. The value for `CCOC(=O)c1nnn(-c2ccccc2)c1N` was 124 to 126 °C.
